Here are results for 20 compounds from patent US5831115A, “Inhibitors of squalene synthase and protein farnesyltransferase” (Abbott Laboratories, priority 1996, dated 1998).

Structures are written as SMILES.

As a reminder, the % Inhibition is the share of the control response that was lost under treatment. One may read the inhibition as the change of the read-out against control, counted positive when it falls.

In one assay the target is T1, Rat liver microsomal squalene synthase (Rattus norvegicus, UniProt Q02769).
T1 construct: Rat liver microsomes, the source of enzyme, were prepared; from tissue; host or cells: rat liver microsomes
T1 sequence (Q02769 1-416): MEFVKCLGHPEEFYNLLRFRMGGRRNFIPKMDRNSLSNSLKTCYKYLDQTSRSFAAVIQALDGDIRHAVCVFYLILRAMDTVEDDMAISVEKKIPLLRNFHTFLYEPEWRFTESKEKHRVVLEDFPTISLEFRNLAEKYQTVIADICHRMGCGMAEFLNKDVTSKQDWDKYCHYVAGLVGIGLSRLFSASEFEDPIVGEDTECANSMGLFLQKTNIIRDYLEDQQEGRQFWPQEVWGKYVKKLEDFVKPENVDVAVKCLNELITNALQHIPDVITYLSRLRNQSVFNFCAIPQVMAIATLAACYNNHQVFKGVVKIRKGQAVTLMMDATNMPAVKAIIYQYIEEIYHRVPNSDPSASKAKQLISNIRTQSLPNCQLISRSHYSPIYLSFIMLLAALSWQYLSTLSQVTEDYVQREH
As to the kind of experiment: In vitro Inhibition of Squalene Synthase (rat liver microsomal, radioactive farnesyl diphosphate substrate). Type of assay: biochemical. As to conditions: rat liver microsomes. The method, then: In vitro inhibition of squalene synthase may be measured by the following procedure.
Rat liver microsomal squalene synthase activity was measured using radioactive farnesyl diphosphate as a substrate and quantitating squalene synthesis by counting the radioactive squalene formed.
Rat liver microsomes, the source of enzyme, were prepared according to the method of Gillies, P. J., et al., Exp. Molc. Pathol. 44: 329-339 (1986), a modification of the procedure of Erickson, S. K., and Cooper, A. D., Metabolism, 29: 991-996 (1980). Approximately 30 μg of microsomal protein was incubated for 10 minutes at 37° C. with […] of ^3 H-farnesyl diphosphate, 49 mCi/mmol, and test compound in the presence of squalene (2 μL), Mg++, KF, reduced B-nicotinamide adenine dinucleotide phosphate, dithiothreitol, and K2 PO4, pH 7.35, in a total volume of 200 μL. Oxygen was excluded from the closed incubation tube by degassing with nitrogen. The reaction was terminated by the addition of ethanolic KOH and after degassing with N2, the microsomal membranes were solubilized by heating at 60° C. for 30 minutes. The squalene was extracted into hexane, and the squalene was separated from all other radioactive molcules by passage over an activated alumina column. The solution was collected in scintillation vials, evaporated to dryness, liquid scintillation fluid was added, and the radioactivity was determined in a liquid scintillation counter. The percent inhibition at a dose of 1 μM compared to controls with no test compound was determined.
For orientation: Liver microsomes are vesicles of endoplasmic reticulum, rich in cytochrome P450 enzymes.
As to `C[C@H](NC(=O)C1CC(CO)C1C(=O)[O-])[C@H](Cc1ccc(Cl)cc1)c1ccc(-c2ccccc2)cc1.[Na+]` (mixture of isomers) [Example 41, (±)-(1α,2β,4α)-2-[N-{(2S,3R)-4-(4-Chlorophenyl)-3-(4-biphenylyl)-2-butyl}aminocarbonyl]-4-hydroxymethylcyclobutane-1-carboxylic acid sodium salt], the “% Inhibition at 1 μM” value is reported as 80%.

As for `CC(NC(=O)[C@H]1C[C@H](C(=O)O)[C@H]1C(=O)O)C(Cc1ccc(Cl)cc1)c1ccc(-c2ccccc2)cc1` (relative stereo) [Example 34, (1β,2α,3α)-3-[N-{(2S,3R)-4-(4-chlorophenyl)-3-(4-biphenylyl)-2-butyl}aminocarbonyl]cyclobutane-1,2-dicarboxylic acid], the inhibition at 1 µM is 94%.

Take `O=C(O)[C@H]1[C@H](C(=O)O)[C@H](C(=O)O)[C@H]1C(=O)N(CCCCCCCCCCc1ccccc1)Cc1ccccc1` (relative stereo) [Example 35, (1β,2β,3α,4α)-4-[N-Benzyl-N-(10-phenyldecyl)aminocarbonyl]cyclobutane-1,2,3-tricarboxylic acid]: the inhibition at 1 µM came to 47%. On the same count and under the same terms, next, `O=C(O)[C@H]1[C@H](C(=O)O)[C@H](C(=O)O)[C@H]1C(=O)N(Cc1ccc(Oc2ccccc2)cc1)Cc1ccc(Cl)c(Cl)c1` (relative stereo) [Example 46]: 53%.

Take `COC(=O)[C@@H]1[C@H](C(=O)O)[C@@H](C(=O)O)[C@H]1C(=O)N[C@@H](C)[C@@H](Cc1ccc(Cl)c(Cl)c1)OC(=O)c1ccc2ccccc2c1` [Example 23, (1S,2R,3S,4R)-3-Methoxycarbonyl-4-[N-{(2S,3R)-4-(3,4-dichlorophenyl)-3-(2-naphthoyloxy)-2-butyl}aminocarbonyl]cyclobutane-1,2-dicarboxylic acid]: the inhibition at 1 µM stood at 98%. Turning to `COC(=O)[C@H]1[C@@H](C(=O)O)[C@H](C(=O)O)[C@@H]1C(=O)N[C@@H](C)[C@@H](Cc1ccc(Cl)c(Cl)c1)OC(=O)c1ccc2ccccc2c1` [Example 24], the inhibition at 1 µM amounted to 27%. On the same count and under the same terms, to `C[C@H](NC(=O)[C@H]1[C@H](C(=O)O)[C@H](C(=O)O)[C@H]1C(=O)O)[C@@H](Cc1ccc(Cl)c(Cl)c1)OC(=O)c1ccc2ccccc2c1` [Example 25, (1S,2S,3S,4R)-4-[N-{(2S,3R)-4-(3,4-Dichlorophenyl)-3-(2-naphthoyloxy)-2-butyl}aminocarbonyl]cyclobutane-1,2,3-tricarboxylic acid] belongs 35%.

For `C[C@H](NC(=O)[C@H]1[C@@H](C(=O)O)[C@H](C(=O)O)[C@@H]1C(=O)O)[C@@H](Cc1ccc(Cl)c(Cl)c1)OC(=O)c1ccc2ccccc2c1` [Example 26, (1R,2R,3R,4S)-4-[N-{(2S,3R)-4-(3,4-Dichlorophenyl)-3-(2-naphthoyloxy)-2-butyl}aminocarbonyl]cyclobutane-1,2,3-tricarboxylic acid], the inhibition at 1 µM worked out at 52%. Regarding `COC(=O)[C@@H]1[C@@H](C(=O)O)[C@@H](C(=O)O)[C@@H]1C(=O)N[C@@H](C)[C@@H](Cc1ccc(Cl)c(Cl)c1)OC(=O)c1ccc2ccccc2c1` [Example 27, (1S,2S,3S,4S)-3-Methoxycarbonyl-4-[N-{(2S,3R)-4-(3,4-dichlorophenyl)-3-(2-naphthoyloxy)-2-butyl}aminocarbonyl]cyclobutane-1,2-dicarboxylic acid], the inhibition at 1 µM worked out at 98%.

Consider `C[C@H](NC(=O)C1CCC1C(=O)O)[C@H](Cc1ccc(Cl)cc1)c1ccc(-c2ccccc2)cc1` (stereo partly drawn) [Example 37, 2-[N-{(2S,3R)-4-(4-Chlorophenyl)-3-(4-biphenylyl)-2-butyl}aminocarbonyl]cyclobutane-1-carboxylic acid], for which the inhibition at 1 µM amounted to 90%. Same read-out and setting: to `CCCN(CCCC(OC(=O)c1ccc2ccccc2c1)C(C)Cc1ccccc1)C(=O)C1C(C(=O)O)C(C(=O)O)C1C(=O)O` (stereo not drawn) [Example 43, (1α,2β,3β,4α)-4-{N-Propyl-N-[(4S*,5S*)-(5-methyl-4-napthoyloxy)-6-phenylhexyl]aminocarbonyl}cyclobutane-1,2,3-tricarboxylic acid] belongs 63%. `CCCN(CCCC=CC(C)CCCc1ccccc1)C(=O)C1C(C(=O)O)C(C(=O)O)C1C(=O)O` [Example 44, (1α,2α,3β,4β)-4-{N-Propyl-N-[(R)-6-methyl-9-phenyl-(E)-4-nonenyl]aminocarbonyl}cyclobutane-1,2,3-tricarboxylic acid]: the inhibition at 1 µM stood at 25%. The same measure, in the same setting: to `CC(C=CCCCN(Cc1ccccc1)C(=O)C1C(C(=O)O)C(C(=O)O)C1C(=O)O)CCCc1ccccc1` [Example 45, (1α,2α,3β,4β)-4-{N-Benzyl-N-[(R)-6-methyl-9-phenyl-(E)-4-nonenyl]aminocarbonyl}cyclobutane-1,2,3-tricarboxylic acid] belongs 67%.

The next assay addresses T2, Rat brain protein farnesyltransferase (Rattus norvegicus, UniProt Q02293+Q04631).
T2 construct: Rat brain protein farnesyltransferase activity was measured; from tissue; host or cells: rat brain; partially purified by steps one through three of Reiss et al., Cell 62:81-88 (1990)
The assay can be described thus: In vitro Inhibition of Protein Farnesyltransferase (scintillation proximity assay, biotin-K Ras B fragment). Type of assay: biochemical. As to conditions: rat brain enzyme. The method, then:
In vitro inhibition of protein farnesyltransferase may be measured by the following procedure. (Procedures for determination of the inhibition of farnesylation of the oncogene protein Ras are described by Goldstein, et al., J. Biol. Chem., 266:15575-15578 (1991) and by Singh in U.S. Pat. No. 5,245,061 both of which are incorporated herein by reference.)
Rat brain protein farnesyltransferase activity was measured using an Amersham Life Science commercial scintillation proximity assay kit and substituting a biotin-K Ras B fragment (biotin-Lys-Lys-Ser-Lys-Thr-Lys-Cys-Val-lle-Met-CO2 H), 0.1 μM final concentration, for the biotin-lamin substrate provided by Amersham. The enzyme was purified according to Reiss, Y., et al., Cell, 62:81-88 (1990), utilizing steps one through three. The specific activity of the enzyme was approximately 10 nmol substrate farnesylated/mg enzyme/hour. […]
(SPA uses beads or plates that emit light when radiolabelled molecules are held near them.)
Take `O=C(OCc1ccccc1)[C@@H]1[C@H](C(=O)O)[C@@H](C(=O)OCc2ccccc2)[C@H]1C(=O)N(Cc1ccccc1)Cc1ccc(Oc2ccccc2)cc1` (relative stereo) [Example 3, (1α,2β,3β,4α)-1-[N-Benzyl-N-(4-phenoxybenzyl)aminocarbonyl]-2,4-di(benzyloxycarbonyl)cyclobutane-3-carboxylic acid]: the inhibition at 1 µM stood at 45%. As for `O=C(O)[C@@H]1[C@H](C(=O)O)[C@@H](C(=O)O)[C@H]1C(=O)N(Cc1ccccc1)Cc1ccc(Oc2ccccc2)cc1` (relative stereo) [Example 4, (1α,2β,3β,4α)-1-[N-Benzyl-N-(4-phenoxybenzyl)aminocarbonyl]cyclobutane-2,3,4-tricarboxylic acid], testing at 1 µM gave an inhibition of 99%. The same measure, in the same setting: to `O=C(OCc1ccccc1)[C@@H]1[C@H](C(=O)O)[C@@H](C(=O)OCc2ccccc2)[C@H]1C(=O)N(Cc1ccc(Oc2ccccc2)cc1)Cc1cccs1` (relative stereo) [Example 5, (1α,2β,3β,4α)-1-[N-(Thien-2-ylmethyl)-N-(4-phenoxybenzyl)aminocarbonyl]-2,4-di(benzyloxycarbonyl)cyclobutane-3-carboxylic acid] belongs 21%; to `O=C(O)[C@@H]1[C@H](C(=O)O)[C@@H](C(=O)O)[C@H]1C(=O)N(Cc1ccc(Oc2ccccc2)cc1)Cc1cccs1` (relative stereo) [Example 6, (1α,2β,3β,4α)-1-[N-(Thien-2-ylmethyl)-N-(4-phenoxybenzyl)aminocarbonyl]cyclobutane-2,3,4-tricarboxylic acid], 89%.

`COC(=O)[C@H]1[C@@H](C(=O)O)[C@H](C(=O)N(Cc2ccccc2)Cc2ccc(Oc3ccccc3)cc2)[C@@H]1C(=O)O` (relative stereo) [Example 8, (1α,2β,3β,4α)-1-[N-Benzyl-N-(4-phenoxybenzyl)aminocarbonyl]-3-(methyloxycarbonyl)cyclobutane-2,4-dicarboxylic acid] yielded an inhibition at 1 µM of 79%. `CC(Cc1ccccc1)C(O)CCCN(Cc1ccccc1)C(=O)C1C(C(=O)O)C(C(=O)O)C1C(=O)O` (stereo not drawn) [Example 1, (1α,2β,3β,4α)-1-[N-Benzyl-N-{(4S*,5S*)-(4-hydroxy-5-methyl)-6-phenylhexyl}aminocarbonyl]cyclobutane-2,3,4-tricarboxylic acid] registered an inhibition at 1 µM of 92%.

The next assay concerns the target T1, Rat liver microsomal squalene synthase. As to the kind of experiment: In vitro Inhibition of Squalene Synthase (rat liver microsomal, radioactive farnesyl diphosphate substrate). Type of assay: biochemical. As to conditions: 0.15 μM (footnote *); rat liver microsomes.
For the compound `CC(NC(=O)C1C(C(=O)O)C(C(=O)O)C1C(=O)O)C(Cc1ccc(Cl)cc1)c1ccc(-c2ccccc2)cc1` [Example 29, (1α,2α,3α,4α)-4-[N-{(2S,3R)-4-(4-chlorophenyl)-3-(4-biphenylyl)-2-butyl}aminocarbonyl]cyclobutane-1,2,3-tricarboxylic acid], the inhibition at 0.15 µM was 81%.
